These results are taken from ChEMBL document CHEMBL3600282, “Four new ginsenosides from red ginseng with inhibitory activity on melanogenesis in melanoma cells” (Bioorg Med Chem Lett, 2015).

SMILES strings stand for the structures. The source made the active and inactive calls. No cut-off for these calls is given here.

Data set [1] is described as follows: Cytotoxicity against mouse B16 cells assessed as cell viability up to 100 uM after 48 hrs by MTT assay. Type of data set: cell-based. Conditions: read-out: Activity. (Tetrazolium assays rely on reduction of a dye to a coloured formazan, in cell work by metabolically active cells.)
Data set [2] has as its system B16. The data set is described as follows: Inhibition of alpha-MSH-induced melanogenesis in mouse B16 cells assessed as reduction of melanin content at 25 to 100 uM after 48 hrs. Type of data set: functional, cell-based.
The test system of data set [3] is B16. The data set is described as follows: Inhibition of alpha-MSH-induced melanogenesis in mouse B16 cells assessed as reduction of melanin content at 200 uM after 48 hrs. Type of data set: functional, cell-based.
In data set [4] the test system is B16. Description: Inhibition of alpha-MSH-induced melanogenesis in mouse B16 cells assessed as reduction of melanin content after 48 hrs. Type of data set: functional, cell-based.
The target of data set [5] is T1, Tyrosinase (Mus musculus) (UniProt P11344).
T1 sequence (whole entry): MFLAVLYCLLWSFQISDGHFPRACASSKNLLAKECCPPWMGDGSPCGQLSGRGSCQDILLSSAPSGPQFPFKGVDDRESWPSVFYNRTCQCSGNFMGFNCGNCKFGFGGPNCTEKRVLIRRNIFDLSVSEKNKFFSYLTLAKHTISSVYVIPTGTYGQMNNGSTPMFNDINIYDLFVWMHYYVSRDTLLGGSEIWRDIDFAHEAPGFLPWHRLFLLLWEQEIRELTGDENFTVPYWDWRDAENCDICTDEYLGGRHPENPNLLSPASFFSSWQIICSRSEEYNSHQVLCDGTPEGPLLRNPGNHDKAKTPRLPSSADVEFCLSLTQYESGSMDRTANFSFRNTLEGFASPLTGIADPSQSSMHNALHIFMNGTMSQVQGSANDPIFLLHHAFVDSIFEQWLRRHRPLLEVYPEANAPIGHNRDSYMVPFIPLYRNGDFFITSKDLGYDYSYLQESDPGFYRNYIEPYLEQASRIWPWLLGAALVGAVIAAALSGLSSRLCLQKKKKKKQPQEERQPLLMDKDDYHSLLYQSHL
Description: Inhibition of alpha-MSH-induced tyrosinase activity in mouse B16 cells assessed as reduction of melanin content using L-DOPA as substrate after 2 hrs. Type of data set: cell-based.

In data set [6] the test system is B16. The data set is described as follows: Inhibition of alpha-MSH-induced melanogenesis in mouse B16 cells assessed as reduction of melanin content at 100 uM after 48 hrs. Type of data set: functional, cell-based.

For `CC(C)=CCC[C@](C)(O)[C@H]1CC[C@]2(C)[C@@H]1[C@H](O)C[C@@H]1[C@@]3(C)CC[C@H](O)C(C)(C)[C@@H]3[C@@H](O[C@@H]3O[C@H](CO)[C@@H](O[C@H]4O[C@H](CO)[C@@H](O)[C@H](O)[C@H]4O)[C@H](O)[C@H]3O)C[C@]12C`, the viability at 48 h in data set [1] is 95%. The inhibition entry with B16 [2] was “inactive”.
As to `OC[C@H]1O[C@@H](Oc2ccc(O)cc2)[C@H](O)[C@@H](O)[C@@H]1O`, the inhibition result in the data set on B16 [3] is “Active”.
For the compound `COC(/C=C(\C)[C@H]1CC[C@]2(C)[C@@H]1[C@H](O)C[C@@H]1[C@@]3(C)CC[C@H](O[C@@H]4O[C@H](CO)[C@@H](O)[C@H](O)[C@H]4O[C@@H]4O[C@H](CO)[C@@H](O)[C@H](O)[C@H]4O)C(C)(C)[C@@H]3CC[C@]12C)C1OC1(C)C` (stereo partly drawn), in data set [1], the viability at 48 h came to 95%. Also, the inhibition entry (in the data set on B16 [4]; in data set [5]) was “Dose-dependent effect” in each case. Further, the inhibition result in the data set on B16 [6] is “Active”.
For the compound `CCCCOC(=O)[C@H]1O[C@@H](O[C@H]2CC[C@]3(C)[C@H]4CC=C5[C@@H]6CC(C)(C)CC[C@]6(C(=O)O[C@@H]6O[C@H](CO)[C@@H](O)[C@H](O)[C@H]6O)CC[C@@]5(C)[C@]4(C)CC[C@H]3C2(C)C)[C@H](O[C@@H]2O[C@H](CO)[C@@H](O)[C@H](O)[C@H]2O)[C@@H](O)[C@@H]1O`, the viability at 48 h in data set [1] came out at 95%. Besides, in the data set with B16 [2], the inhibition result was “inactive”.
Regarding `CC(=O)OC[C@H]1O[C@@H](O[C@H]2[C@H](O[C@H]3CC[C@]4(C)[C@H]5C[C@@H](O)[C@@H]6[C@@H](/C(C)=C\CC=C(C)C)CC[C@@]6(C)[C@]5(C)CC[C@H]4C3(C)C)O[C@H](CO)[C@@H](O)[C@@H]2O)[C@H](O)[C@@H](O)[C@@H]1O`, in data set [1], the viability at 48 h stood at 95%. The inhibition result (in the data set on B16 [4]; in data set [5]) was “Dose-dependent effect” in each case. Besides, the inhibition entry with B16 [6] is “Active”.
